Broadly, the IC50 is the concentration that inhibits the measured activity by half.

Where two headings read alike, the source gives them in different places.

These results are taken from US9540412B2, “Methods of preparing targeted aptamer prodrugs” (Albert Einstein College of Medicine, Inc., priority 2010, dated 2017).

Data set [1] has as its system HeLa cells. Briefly: HeLa cell viability (alamarBlue) after aptamer-prodrug treatment. It is filed as cell-based, human. To be noted: 50 nM aptamer, 4 days, serum free media (DMEM containing 1% Nutridoma), FIG. 3. The text has this:
To test the feasibility of this strategy for delivery of nucleoside analog drugs, two different anti-hTfR aptamers (designated min8 and min9.1) were extended with a 24 nucleotide extension. A complementary DNA oligonucleotide (FdC-oligo) was then synthesized to this region in which all cytosine residues had been replaced with the nucleoside analog 5F-deoxycytidine (FdC), a potent inhibitor of methyltransferase activity (Beumer et al. 2008). The aptamer-produgs were then assembled by mixing the drug oligo at a 1:1 molar ratio with one of two different minized anti-hTfR aptamers, min8, min9.1, or a non-targeting control aptamer (cntrl) in PBS and thermally equilibrated by heating at 70° C. Aptamer function following hybridization was confirmed by FACS using a FITC labeled version of the oligonucleotide.
The ability of the assembled anti-hTfR aptamer-prodrugs to deliver therapeutic cargo to cells was tested on HeLa cells. To avoid potential complications from degradation of the FdC-oligo (which is DNA and thus readily susceptible to degradation), these assays were performed in serum free media (DMEM containing 1% Nutridoma). Cells were incubated with increasing concentrations of either free drug, anti-hTfR aptamer-prodrugs or controls for 4 days, after which cell viability was assayed using the chromogenic substrate alamarBlue. […]

The target in data set [2] is T1, human protein tyrosine kinase-7 (Homo sapiens, UniProt Q13308).
T1 construct: This protein is overexpressed on a variety of leukemia cell lines; endogenous in cells; host or cells: 'target cells'
T1 sequence (Q13308 31-1070): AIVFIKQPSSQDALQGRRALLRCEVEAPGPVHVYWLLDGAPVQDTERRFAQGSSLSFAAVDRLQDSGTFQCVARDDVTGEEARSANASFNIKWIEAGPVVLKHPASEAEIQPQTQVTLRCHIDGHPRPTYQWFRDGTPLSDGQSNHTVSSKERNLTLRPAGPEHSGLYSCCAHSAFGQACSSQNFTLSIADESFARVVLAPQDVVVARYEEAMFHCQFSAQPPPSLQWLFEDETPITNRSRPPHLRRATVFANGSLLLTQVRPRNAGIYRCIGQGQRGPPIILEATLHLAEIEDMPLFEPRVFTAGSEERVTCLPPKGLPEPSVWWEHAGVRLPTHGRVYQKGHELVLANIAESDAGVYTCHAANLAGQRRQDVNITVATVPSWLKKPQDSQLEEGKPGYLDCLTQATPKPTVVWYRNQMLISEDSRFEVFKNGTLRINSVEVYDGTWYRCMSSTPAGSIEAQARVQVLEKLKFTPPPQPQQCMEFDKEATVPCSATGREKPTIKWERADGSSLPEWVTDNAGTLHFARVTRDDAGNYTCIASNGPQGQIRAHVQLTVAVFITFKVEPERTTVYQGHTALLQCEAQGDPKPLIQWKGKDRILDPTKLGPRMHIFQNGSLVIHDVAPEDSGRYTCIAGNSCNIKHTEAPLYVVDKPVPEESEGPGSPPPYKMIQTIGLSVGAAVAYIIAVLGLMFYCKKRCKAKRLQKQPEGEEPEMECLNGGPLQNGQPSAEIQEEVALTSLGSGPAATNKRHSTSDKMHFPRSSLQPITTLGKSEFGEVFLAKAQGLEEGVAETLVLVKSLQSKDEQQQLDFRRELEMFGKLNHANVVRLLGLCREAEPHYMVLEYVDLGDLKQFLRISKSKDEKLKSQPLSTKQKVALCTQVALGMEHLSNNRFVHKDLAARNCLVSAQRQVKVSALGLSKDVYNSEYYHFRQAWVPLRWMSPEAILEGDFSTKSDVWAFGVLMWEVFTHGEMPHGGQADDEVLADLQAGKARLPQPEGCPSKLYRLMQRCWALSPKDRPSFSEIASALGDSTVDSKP
The data set is described as follows: Binding of fluorescently labeled scgc8 aptamer prodrugs to target cells (FIG. 4A). To be noted: fluorescently labeled aptamers. The text has this:
(§1) In addition to adding drugs to aptamers by hybridization, a series of aptamer-prodrugs has been synthesized using a DNA aptamer (scgc8) which targets human protein tyrosine kinase-7. […] To stabilize these aptamers against serum nucleases, the oligonucleotides were generated bearing a 3′ inverted thymidine residue which dramatically stabilizes the serum half-life of DNA molecules to ˜20 hrs (Dass et al. 2002).
A ssDNA aptamer that targets protein kinase 7 was selected by Shanggun et al (J Proteome Res, 2008 7:2133). The aptamer, scgc.8, was adapted for the delivery of floxuridine (5FdU) by site specific incorporation this nucleoside analog drug during chemical synthesis. Aptamer prodrugs were synthesized bearing a 5′ fluorescein molecule and a 3′ inverted thymiding residue to enhance serum stability. The sequence of the parental aptamer and the aptamer prodrugs are: Scgc.8 […] (SEQ ID NO:8); Scgc.8-5 AU*CU*AACU*[…]*U*AGA (SEQ ID NO:9); Scgc.8-9 AU*CU*AACU*GCU*GCGCCGCCGGGAAAAU*ACU*GU*ACGGU*U*AGA (SEQ ID NO:10). U* denotes 5FdU.

Data set [3] has as its system Jurkat cells. The data set is described as follows: Jurkat cell growth inhibition / toxicity (FIG. 4B). The class given is cell-based, human. To be noted: 500 nM, regular media (RPMI+10% FBS), 3' inverted thymidine.
Source text: as §1

For data set [4], the system named is LNCaP cells. To be noted: unconjugated toxin; read-out: IC50 (toxicity); cited from earlier work.
Data set [5] relates to Min6B1 cells. Briefly: Flow cytometry cell labeling of Min6B1 cells. The class given is cell-based, mouse. To be noted: streptavidin phycoerytherin.
Data set [6] concerns Min6B1 cells. Briefly: Internalization into Min6B1 cells (fluorescence microscopy). It is filed as cell-based, mouse. On the procedure:
Aptamers that target and are internalized by beta cells were identified by performing an internalization selection against the glucose-responsive immortalized mouse beta cell line Min6B1. As in the selection against the transferrin receptor described above, in order to drive the selection towards molecules that are internalized, following incubation with the RNA library, target cells were washed extensively and treated with trypsin and ribonuclease to remove any surface bound RNA. Following recovery of total RNA, aptamers were amplified, transcribed and the process was repeated.
When similar experiments were conducted with the unselected library, little or no fluorescent signal was observed.

Data set [7] relates to mouse (fibroblasts, brain endothelial, skeletal and myocardial muscles) and human (cervical and prostate cancer) cell lines. The data set is described as follows: Specificity studies on additional mouse and human cell lines. The class given is cell-based.

Turning to `Nc1nc(=O)n([C@H]2C[C@H](O)[C@@H](CO)O2)cc1F` [free drug, 5F-deoxycytidine], the cell viability result in data set [1] is recorded as “loss of cell viability”.

As for “scgc8-5: scgc8 with 5 of 9 thymidine residues replaced with floxuridine, SEQ ID NO:9 (AUCUAACUGCTGCGCCGCCGGGAAAATACTGTACGGUUAGA; floxuridine substitutions, chemistry not fully specified)”, the “binding to target cells” value in data set [2] is given as “still bound target cells better than a scrambled control sequence (cntrl-9) but less efficiently than the non-drug containing aptamer (scgc8)”. Moreover, the “inhibition of cell growth / toxicity” value in data set [3] is “considerable lower levels of toxicity”.

With gelonin, in data set [4], the IC50 was about 5 µM.

As for “C1.min: minimized core of C1, SEQ ID NO:12 (UGCGAAUCCUCUAUCCGUUCUAAACGCUUUAUGAUUUCGCA; listed as RNA, chemistry not given here)”, the cell labeling entry in data set [5] was “labeled cells as efficiently as the full length clone”.

In the case of “scgc8-9: scgc8 with all 9 thymidine residues replaced with floxuridine, SEQ ID NO:10 (AUCUAACUGCTGCGCCGCCGGGAAAATACTGTACGGUUAGA; all 9 thymidines replaced with floxuridine, chemistry not fully specified)”, the “binding to target cells” value in data set [2] is reported as “still bound target cells better than a scrambled control sequence (cntrl-9) but less efficiently than the non-drug containing aptamer (scgc8)”. Also, the “inhibition of cell growth / toxicity” value in data set [3] was “inhibited cell growth as efficiently as free drug alone”.

B1: C1: 2′F modified internalizing RNA selected against Min6B1 cells, SEQ ID NO:11 (nucleic acid)
chain: GGGAGGUGAAUGGUUCUACGAUAUUGCGAAUCCUCUAUCCGUUCUAAACGCUUUAUGAUUUCGCAUAGUCCUUACAUGCGAGAUGACCACCGUAAUUGAAUUAAAUGCCCGCCAUGACCAG
modifications: 2'-fluoro modified RNA library, positions of 2'-F not given here
B1: in data set [5], the cell labeling result is reported as “significant cell labeling”. In addition, the internalization result in data set [6] is listed as “not only binds to, but is also internalized by this cell type”; in data set [6] (listed as dominant clone), “readily internalized by Min6B1 cells”. Besides, the “cell specificity of targeting / internalization” value in data set [7] is reported as “targets several unrelated cell lines across different species”; in data set [7] (listed as dominant clone), “not specific for beta cells”.
